The source of these data is ChEMBL document CHEMBL4368910, “Discovery of ( R)-8-(6-Methyl-4-oxo-1,4,5,6-tetrahydropyrrolo[3,4- b]pyrrol-2-yl)-3-(1-methylcyclopropyl)-2-((1-methylcyclopropyl)amino)quinazolin-4(3 H)-one, a Potent and Selective Pim-1/2 Kinase Inhibitor for Hematological Malignancies” (J Med Chem, 2019).

The nature of data set [1]: Solubility of the compound in 0.01N HCl at pH 2 incubated for 1 hr in shaker and subsequently equilibrated for 72 hrs by LC/MS analysis. It counts as physicochemical.
Data set [2] can be described thus: Solubility of the compound in fasted state simulated intestinal fluid at pH 6.8 incubated for 1 hr in shaker and subsequently equilibrated for 72 hrs by LC/MS analysis. It is filed as physicochemical.
Data set [3] can be described thus: Solubility of the compound in phosphate buffer solution at pH 7.4 incubated for 1 hr in shaker and subsequently equilibrated for 72 hrs by LC/MS analysis. It is filed as physicochemical.
Data set [4] in a line: Volume of distribution at steady state in Sprague-Dawley rat. It counts as ADME. As to conditions: in vivo, read-out: Vdss.
Data set [5] can be described thus: Oral bioavailability in Sprague-Dawley rat at 5 mg/kg. It is filed as ADME, organism-based. As to conditions: in vivo.
Data set [6] can be described thus: Apparent permeability in pig LLC-PK1 cells at 5 uM. It is filed as ADME, cell-based, Sus scrofa.
Data set [7] can be described thus: Volume of distribution at steady state in dog. It counts as ADME, Canis lupus familiaris. As to conditions: in vivo, read-out: Vdss.
The nature of data set [8]: Oral bioavailability in dog. It is filed as ADME, organism-based, Canis lupus familiaris. As to conditions: in vivo.
The nature of data set [9]: Drug uptake in plasma of SCID-Beige mouse xenografted with human KMS-12-BM cells at 25 to 100 mg/kg, po administered once daily for 14 days and measured twice per week. It is filed as ADME, organism-based. As to conditions: in vivo, 336 h.

Values after ≈ are worked out from the molar mass of the structure shown.

Consider `C[C@H]1NC(=O)c2cc(-c3cccc4c(=O)n(CC5(O)CC5)c(NC(C)(C)C)nc34)[nH]c21`, for which the solubility (thermodynamic) at 72 h in data set [1], in [2] and in data set [3] was less than 5 µM each time.

`C[C@H]1NC(=O)c2cc(-c3cccc4c(=O)n(CC5(N)CC5)c(NC(C)(C)C)nc34)[nH]c21`: the figures for the thermodynamic solubility at 72 h in [1], in data set [2] and in [3] were 500 µM (≈ 210 µg/mL), 42 µM (≈ 17.7 µg/mL) and less than 5 µM, respectively.

Regarding `C[C@H]1NC(=O)c2cc(-c3cccc4c(=O)n(C5CC5)c(NC(C)(C)C)nc34)[nH]c21`, the solubility (thermodynamic) at 72 h was 95 µM (≈ 37.2 µg/mL) in data set [1], 175 µM (≈ 68.5 µg/mL) in [2] and 13 µM (≈ 5.09 µg/mL) in [3].

In the case of `C[C@H]1NC(=O)c2cc(-c3cccc4c(=O)n(C5CCC5)c(NC5(C)CC5)nc34)[nH]c21`, the figures for the solubility (thermodynamic) at 72 h in data set [1], in data set [2] and in data set [3] were 441 µM (≈ 178 µg/mL), 379 µM (≈ 153 µg/mL) and less than 5 µM, respectively.

For the molecule `C[C@H]1NC(=O)c2cc(-c3cccc4c(=O)n([C@@H](C)c5cn(C)cn5)c(NC5(C)CC5)nc34)[nH]c21`, the Vd in [4] was 1 L/kg. In [5], this molecule had a bioavailability of 19%. Besides, the solubility (thermodynamic) at 72 h in data set [1] is 464 µM (≈ 212 µg/mL); in data set [2] it was 469 µM (≈ 215 µg/mL); in data set [3], 60 µM (≈ 27.5 µg/mL). Also, in [6], the Papp at 5 µM was determined as 35 ×10⁻⁶ cm/s.

Consider `CC(c1cn(C)cn1)n1c(NC2(C)CC2)nc2c(-c3cc4c([nH]3)[C@@H](C)NC4=O)cccc2c1=O` (mixture of isomers), for which the thermodynamic solubility at 72 h is 500 µM in data set [1], 500 µM in data set [2] and 52 µM in data set [3].

For `CC(C)n1c(NC(C)(C)C)nc2c(-c3cc4c([nH]3)[C@@H](C)NC4=O)cccc2c1=O`, the figures for the thermodynamic solubility at 72 h in data set [1], in data set [2] and in [3] were 26 µM (≈ 10.2 µg/mL), 68 µM (≈ 26.8 µg/mL) and 11 µM (≈ 4.33 µg/mL), respectively.

For `C[C@H]1NC(=O)c2cc(-c3cccc4c(=O)n(C(C)(C)C)c(NC(C)(C)C)nc34)[nH]c21`, the solubility (thermodynamic) at 72 h in data set [1] is less than 5 µM; in data set [2] it was 58 µM (≈ 23.6 µg/mL); in data set [3], less than 5 µM.

For the molecule `C[C@H](c1cn(C)cn1)n1c(NC2(C)CC2)nc2c(-c3cc4c([nH]3)[C@@H](C)NC4=O)cccc2c1=O`, the thermodynamic solubility at 72 h in [1] is 485 µM (≈ 222 µg/mL); in data set [2], 435 µM (≈ 199 µg/mL); in [3] it was 53 µM (≈ 24.2 µg/mL).

As for `CC(c1cn(C)cn1)n1c(NC(C)(C)C)nc2c(-c3cc4c([nH]3)[C@@H](C)NC4=O)cccc2c1=O` (stereo not given in full), the results for the thermodynamic solubility at 72 h in data set [1], in [2] and in [3] were 423 µM (≈ 194 µg/mL), 489 µM (≈ 225 µg/mL) and 86 µM (≈ 39.5 µg/mL), respectively.

As for `C[C@H]1NC(=O)c2cc(-c3cccc4c(=O)n(C5(C)CC5)c(NC(C)(C)C)nc34)[nH]c21`, the solubility (thermodynamic) at 72 h in [1] is less than 5 µM; in data set [2], 36 µM (≈ 14.6 µg/mL); in data set [3], less than 5 µM.

On to `C[C@H]1NC(=O)c2cc(-c3cccc4c(=O)n(C5CC5)c(NC5(C)CC5)nc34)[nH]c21`, for which, in data set [4], the Vd was found to be 1.2 L/kg. This molecule also came in with a bioavailability in data set [5] of 68%. Further, the solubility (thermodynamic) at 72 h in data set [1] was 458 µM (≈ 178 µg/mL); in [2], 144 µM (≈ 56.1 µg/mL); in data set [3] it was 78 µM (≈ 30.4 µg/mL). Moreover, in data set [6], the Papp at 5 µM is 23 ×10⁻⁶ cm/s.

For the molecule `C[C@H]1NC(=O)c2cc(-c3cccc4c(=O)n(C)c(NC5(C)CC5)nc34)[nH]c21`, the figures for the solubility (thermodynamic) at 72 h in data set [1], in data set [2] and in [3] were 500 µM (≈ 182 µg/mL), 344 µM (≈ 125 µg/mL) and 56 µM (≈ 20.4 µg/mL), respectively. For the same molecule, the Papp at 5 µM in data set [6] amounted to 31 ×10⁻⁶ cm/s.

Turning to `C[C@H]1NC(=O)c2cc(-c3cccc4c(=O)n(C(C)(C)C)c(NC5(C)CC5)nc34)[nH]c21`, the values for the thermodynamic solubility at 72 h in [1], in data set [2] and in data set [3] were 495 µM (≈ 201 µg/mL), 326 µM (≈ 132 µg/mL) and less than 5 µM, respectively.

For the molecule `C[C@H]1NC(=O)c2cc(-c3cccc4c(=O)n(C)c(NC(C)(C)C)nc34)[nH]c21`, the figures for the thermodynamic solubility at 72 h in data set [1], in [2] and in data set [3] were 60 µM (≈ 21.9 µg/mL), 104 µM (≈ 38 µg/mL) and 23 µM (≈ 8.41 µg/mL), respectively. For the same molecule, the Papp at 5 µM in [6] was 46 ×10⁻⁶ cm/s.

`C[C@H]1NC(=O)c2cc(-c3cccc4c(=O)n(C[C@@H]5CCCO5)c(NC(C)(C)C)nc34)[nH]c21`: the thermodynamic solubility at 72 h in data set [1] is 28 µM (≈ 12.2 µg/mL); in [2] it was 15 µM (≈ 6.53 µg/mL); in [3] it was 12 µM (≈ 5.23 µg/mL).

Regarding `C[C@H]1NC(=O)c2cc(-c3cccc4c(=O)n(CC(C)(C)N)c(NC(C)(C)C)nc34)[nH]c21`, the thermodynamic solubility at 72 h was 347 µM (≈ 147 µg/mL) in data set [1], 131 µM (≈ 55.4 µg/mL) in data set [2] and 26 µM (≈ 11 µg/mL) in [3].

As to `C[C@H]1NC(=O)c2cc(-c3cccc4c(=O)n(CC5CC5)c(NC5(C)CC5)nc34)[nH]c21`, the thermodynamic solubility at 72 h in data set [1] was 214 µM (≈ 86.3 µg/mL); in data set [2], 179 µM (≈ 72.2 µg/mL); in [3] it was 13 µM (≈ 5.25 µg/mL).

Take `C[C@H]1NC(=O)c2cc(-c3cccc4c(=O)n(C[C@H]5CCCO5)c(NC(C)(C)C)nc34)[nH]c21`: the solubility (thermodynamic) at 72 h in [1] was less than 5 µM; in data set [2] it was 60 µM (≈ 26.1 µg/mL); in data set [3], 19 µM (≈ 8.28 µg/mL).

In the case of `C[C@H]1NC(=O)c2cc(-c3cccc4c(=O)n(C[C@H]5CN(C)CCO5)c(NC(C)(C)C)nc34)[nH]c21`, the solubility (thermodynamic) at 72 h is 256 µM (≈ 119 µg/mL) in data set [1], less than 5 µM in data set [2] and less than 5 µM in data set [3].

Take `C[C@H]1NC(=O)c2cc(-c3cccc4c(=O)n(Cc5cn(C)cn5)c(NC(C)(C)C)nc34)[nH]c21`: the thermodynamic solubility at 72 h in [1] is 94 µM (≈ 41.9 µg/mL); in [2], 131 µM (≈ 58.4 µg/mL); in data set [3], 22 µM (≈ 9.8 µg/mL).

In the case of `C[C@H]1NC(=O)c2cc(-c3cccc4c(=O)n(C5(C)CC5)c(NC5(C)CC5)nc34)[nH]c21`, the Vd came to 2.1 L/kg in data set [7] and 1.7 L/kg in [4]. The bioavailability amounted to 85% in data set [5] and 56% in data set [8]. In addition, the results for the solubility (thermodynamic) at 72 h in data set [1], in [2] and in data set [3] were 490 µM (≈ 198 µg/mL), 185 µM (≈ 74.6 µg/mL) and 31 µM (≈ 12.5 µg/mL), respectively. The Drug uptake entry in data set [9] is “Dose-dependent effect”. In data set [6], the Papp at 5 µM amounted to 32 ×10⁻⁶ cm/s.

Turning to `C[C@H]1NC(=O)c2cc(-c3cccc4c(=O)n(CC5COC5)c(NC(C)(C)C)nc34)[nH]c21`, the thermodynamic solubility at 72 h was 14 µM (≈ 5.9 µg/mL) in [1], 32 µM (≈ 13.5 µg/mL) in [2] and 6 µM (≈ 2.53 µg/mL) in data set [3].

For `C[C@H]1NC(=O)c2cc(-c3cccc4c(=O)n(CC5(N)CC5)c(NC5(C)CC5)nc34)[nH]c21`, the results for the solubility (thermodynamic) at 72 h in data set [1], in data set [2] and in data set [3] were 454 µM (≈ 190 µg/mL), 280 µM (≈ 117 µg/mL) and 134 µM (≈ 56.1 µg/mL), respectively.

For the molecule `C[C@H]1NC(=O)c2cc(-c3cccc4c(=O)n(C[C@@H]5CN(C)CCO5)c(NC(C)(C)C)nc34)[nH]c21`, the values for the solubility (thermodynamic) at 72 h in data set [1], in data set [2] and in data set [3] were 500 µM (≈ 232 µg/mL), 283 µM (≈ 131 µg/mL) and 122 µM (≈ 56.7 µg/mL), respectively.

`C[C@H]1NC(=O)c2cc(-c3cccc4c(=O)n(CC5(O)CC5)c(NC5(C)CC5)nc34)[nH]c21`: the values for the thermodynamic solubility at 72 h in [1], in data set [2] and in [3] were 43 µM (≈ 18 µg/mL), 15 µM (≈ 6.29 µg/mL) and less than 5 µM, respectively.

`C[C@H]1NC(=O)c2cc(-c3cccc4c(=O)n(CC5CC5)c(NC(C)(C)C)nc34)[nH]c21`: the solubility (thermodynamic) at 72 h in data set [1] is less than 5 µM; in data set [2], 12 µM (≈ 4.87 µg/mL); in [3] it was less than 5 µM.
